Laboratory results as given in patent publication US8802638B1, “Flavonoid treatment of glycogen synthase kinase-based disease” (University of South Florida, priority 2007, dated 2014).

Legend:
γ-secretase = molecular target: T1, γ-secretase (Mus musculus, UniProt P49769); experiment: fluorometric assay for γ-secretase cleavage activity in SweAPP N2a cell lysates; type: cell-based, murine; conditions: relative to untreated control
T1 construct: endogenous in cells; host or cells: SweAPP N2a cells (lysates of treated cells)
Experimental: Cultured cells or mouse brain were lysed in ice-cold lysis buffer described above, and an aliquot corresponding to 50 μg of total protein was electrophoretically separated using 12% Tris-HCl or 16.5% Tris-tricine gels. Electrophoresed proteins were then transferred to PVDF membranes, washed in dH2O, and blocked for 1 hr at ambient temperature in Tris-buffered saline (TBS; Bio-Rad) containing 5% (w/v) non-fat dry milk. After blocking, membranes were hybridized for 1 hr at ambient temperature with various primary antibodies. Membranes were then washed 3× for 5 min each in dH2O and incubated for 1 hr at ambient temperature with the appropriate HRP-conjugated secondary antibody (1:1,000). Antibodies were obtained against the amino-terminus and carboxyl-terminus of PS1 (Chemicon, Temecula, Calif.), amino-terminus and carboxyl-terminus of APP (22C11), actin (Roche, Basel, Switzerland), Aβ (6E10, 48G) (Signet Laboratories, Dedham, Mass.), phosphor-GSK3α (ser^21, clone BK202) (Upstate, Lake Placid, N.Y.), phospho-GSK3α/β (pTyr^279/216) (Sigma), phospho-GSK-3β (Ser^9) (Sigma) and total GSK-3α/β (Sigma). […] Densitometric analysis was done as previously described using a FluorS Multiimager with Quantity One™ software (39). […] Antibodies used for Western blot included the APP-carboxyl-terminal antibody (1:50)), amino-terminal APP antibody (clone 22C11), or 6E10 (1:1,000), or actin antibody (1:1,500; as an internal reference control). γ-secretase activity was quantified in cell lysates using available kits based on secretase-specific peptides conjugated to fluorogenic reporter molecules.
Due to the implications on γ-secretase activity, luteolin's effect on SweAPP N2a cells was analyzed using a fluorometric assay for γ-cleavage.
Cultured cells or mouse brain were lysed in ice-cold lysis buffer described above, and an aliquot corresponding to 50 μg of total protein was electrophoretically separated using 12% Tris-HCl or 16.5% Tris-tricine gels. […] Densitometric analysis was done as previously described using a FluorS Multiimager with Quantity One™ software. […]

PS1-APP association = experiment: PS1-APP association, immunoprecipitation/Western blot in SweAPP N2a cells; type: cell-based, murine; conditions: 20 μM for 4 hrs or siRNA transfection
Experimental: Cultured cells or mouse brain were lysed in ice-cold lysis buffer described above, and an aliquot corresponding to 50 μg of total protein was electrophoretically separated using 12% Tris-HCl or 16.5% Tris-tricine gels. Electrophoresed proteins were then transferred to PVDF membranes, washed in dH2O, and blocked for 1 hr at ambient temperature in Tris-buffered saline (TBS; Bio-Rad) containing 5% (w/v) non-fat dry milk. After blocking, membranes were hybridized for 1 hr at ambient temperature with various primary antibodies. Membranes were then washed 3× for 5 min each in dH2O and incubated for 1 hr at ambient temperature with the appropriate HRP-conjugated secondary antibody (1:1,000). All antibodies were diluted in TBS containing 5% (w/v) of non-fat dry milk. Blots were developed using the luminol reagent (Pierce Biotechnology). Densitometric analysis was done as previously described using a FluorS Multiimager with Quantity One™ software. Immunoprecipitation was performed for detection of sAPP-α, sAPP-β and Aβ by incubating 200 μg of total protein of each sample with various sequential combinations of 6E10 (1:100) and/or 22C11 (1:100) antibodies overnight with gentle rocking at 4° C., and 10 μL of 50% protein A-Sepharose beads were then added to the sample (1:10; Sigma) prior to gentle rocking for an additional 4 hrs at 4° C. Following washes with 1× cell lysis buffer, samples were subjected to Western blot as described above. Antibodies used for Western blot included the APP-carboxyl-terminal antibody (1:50)), amino-terminal APP antibody (clone 22C11), or 6E10 (1:1,000), or actin antibody (1:1,500; as an internal reference control). γ-secretase activity was quantified in cell lysates using available kits (R&D Systems, Minneapolis, Minn.), based on secretase-specific peptides conjugated to fluorogenic reporter molecules.
Cell lysates of luteolin-treated SweAPP N2a cells were immunoprecipitated by PS1 antibody and probed for APP to clarify how phospho-PS1 CTF isoforms may regulate γ-secretase activity, seen in FIGS. 26(A) through 27(B). As illustrated in FIGS. 26(A) and (B), the APP-PS1 association is disrupted by luteolin, SB-415286 treatment, and GSK-3α siRNA. […] Thus, GSK-3α or, more specifically, downstream phosphorylation of the PS1 CTF plays an essential role in regulating the association of γ-secretase complex with its APP substrate.

β-catenin = β-catenin after luteolin treatment; type: cell-based; conditions: data not shown
[1] = cited from earlier work

## O=c1cc(-c2ccc(O)c(O)c2)oc2cc(O)cc(O)c12 [luteolin]
γ-secretase
  γ-secretase cleavage activity: lowered γ-secretase cleavage activity in both a dose and time dependent fashion
PS1-APP association; 6E10 Western blot of lysates
  ratio of APP to actin (full-length APP levels): no significant changes
PS1-APP association; IP with anti-PS1 CTF, 6E10 blot
  APP-PS1 association: disrupted
β-catenin
  β-catenin: remains unaffected
[1]; in vivo
  half-life in plasma: < 4 h
[1]; oral
  oral bioavailability: < 2%
